According to ChEMBL document CHEMBL1201862, “PubChem BioAssay data set” (2004):
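Five concentrations, 48 hours, 96-well plates. GI50 = concentration required for 50% inhibition of growth.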 Activity calls are given as the source filed them. Cut-off read from the data, not from the text of the source: active = GI50 up to about 1.1 µM and inactive = higher.

Tests used:
Test in all cases: NCI anticancer screen, dose series, 48 h
[1] = test system: OVCAR-5
[2] = test system: SN12C
[3] = test system: NCI-H226
[4] = test system: TK-10
[5] = test system: SF-268
[6] = test system: LOX IMVI
[7] = test system: IGROV-1
[8] = test system: MDA-N
[9] = test system: U-251
[10] = test system: MOLT-4
[11] = test system: MCF7
[12] = test system: RXF 393
[13] = test system: NCI-H23
[14] = test system: COLO 205
[15] = test system: SK-MEL-5
[16] = test system: OVCAR-8
[17] = test system: HOP-62
[18] = test system: ACHN
[19] = test system: A549
[20] = test system: Hs-578T

Measured: GI50

COc1cc(OC)c(OC)cc1/C=N/N=C(\N)NO
inactive: [1] > 100 µM | [2] > 100 µM | [3] 61.4 µM | [4] > 100 µM | [5] > 100 µM | [6] > 100 µM | [7] > 100 µM | [8] > 100 µM | [9] > 100 µM | [10] > 100 µM | [11] > 100 µM | [12] > 100 µM | [13] > 100 µM | [14] 80 µM | [15] > 100 µM | [16] > 100 µM | [17] > 100 µM | [18] 56.2 µM | [19] > 100 µM | [20] > 100 µM

CC(=N/NC(=S)N1CCCCC1)/C(=N\NC(=S)N1CCCCC1)c1ccccc1
inactive: [1] 2 µM | [2] 1.82 µM | [3] 1.91 µM | [4] 1.74 µM | [5] 1.79 µM | [6] 3.43 µM | [7] 1.72 µM | [8] 2.61 µM | [9] 1.68 µM | [10] 6.19 µM | [11] 2.75 µM | [12] 1.35 µM | [13] 2.2 µM | [14] 2.22 µM | [15] 1.96 µM | [16] 2.64 µM | [17] 2.04 µM | [18] 1.6 µM | [19] 2.03 µM | [20] 1.84 µM

Cc1cc2ccccc2c[n+]1CC(O)C[n+]1cc2ccccc2cc1C
inactive: [1] > 100 µM | [2] > 100 µM | [3] > 100 µM | [4] > 100 µM | [5] > 100 µM | [6] > 100 µM | [7] > 100 µM | [8] > 100 µM | [9] > 100 µM | [10] > 100 µM | [11] > 100 µM | [12] > 100 µM | [13] > 100 µM | [14] > 100 µM | [15] > 100 µM | [16] > 100 µM | [17] 82.6 µM | [18] > 100 µM | [19] > 100 µM | [20] > 100 µM

OC1(CCc2ccccc2)COC(C(F)(F)F)(C(F)(F)F)C1 (stereo not given)
inactive: [1] > 100 µM | [2] > 100 µM | [3] > 100 µM | [4] > 100 µM | [5] > 100 µM | [6] > 100 µM | [7] > 100 µM | [8] > 100 µM | [9] > 100 µM | [10] > 100 µM | [11] > 100 µM | [12] > 100 µM | [13] > 100 µM | [14] > 100 µM | [15] > 100 µM | [16] > 100 µM | [17] > 100 µM | [18] > 100 µM | [19] > 100 µM | [20] > 100 µM

COc1ccc(CCc2ccc(O)c(C(=O)O)c2)cc1OC
inactive: [1] > 100 µM | [2] > 100 µM | [3] > 100 µM | [4] > 100 µM | [5] > 100 µM | [6] 7.5 µM | [7] > 100 µM | [8] > 100 µM | [9] > 100 µM | [10] 59.2 µM | [11] > 100 µM | [12] 63.5 µM | [13] > 100 µM | [14] > 100 µM | [15] 98.9 µM | [16] > 100 µM | [17] > 100 µM | [18] > 100 µM | [19] > 100 µM | [20] > 100 µM

Cc1cccc(-c2nc3ccc([N+](=O)[O-])cc3c(=O)o2)c1
inactive: [1] > 100 µM | [2] 72.3 µM | [3] 71.6 µM | [4] 59.3 µM | [5] 60.3 µM | [6] 26.2 µM | [7] > 100 µM | [8] > 100 µM | [9] 44.4 µM | [10] 27.6 µM | [11] 62.5 µM | [12] > 100 µM | [13] 72.8 µM | [14] > 100 µM | [15] > 100 µM | [16] 46.7 µM | [17] 46.1 µM | [18] 83.8 µM | [19] 73.3 µM | [20] 22 µM

COC(=O)c1ccccc1C1CN=NC12Cc1c(C)cccc1C2=O (stereo not given)
inactive: [1] 71.8 µM | [2] > 100 µM | [3] > 100 µM | [4] > 100 µM | [5] > 100 µM | [6] 45.1 µM | [7] > 100 µM | [8] > 100 µM | [9] 80.7 µM | [10] 69.5 µM | [11] > 100 µM | [12] > 100 µM | [13] > 100 µM | [14] > 100 µM | [15] 90.2 µM | [16] > 100 µM | [17] > 100 µM | [18] > 100 µM | [19] 61.5 µM | [20] > 100 µM

O=C(c1nc2ccc([N+](=O)[O-])cc2nc1O)C(O)c1ccc2c(c1)OCO2 (stereo not given)
inactive: [1] > 100 µM | [2] > 100 µM | [3] > 100 µM | [4] > 100 µM | [5] > 100 µM | [6] > 67.9 µM | [7] > 100 µM | [8] 70.8 µM | [9] > 100 µM | [10] > 100 µM | [11] 96.8 µM | [12] > 100 µM | [13] > 100 µM | [14] > 96.4 µM | [15] 45.7 µM | [16] > 100 µM | [17] > 100 µM | [18] > 100 µM | [19] > 100 µM | [20] > 100 µM

CCCCCCCCOC1C(O)C(O)C(O)C(O)C12CO2 (stereo not given)
inactive: [1] > 10 µM | [2] 51.2 µM | [3] 86.1 µM | [4] > 100 µM | [5] 64.4 µM | [6] 48.4 µM | [7] 75.5 µM | [8] 32.4 µM | [9] 41.9 µM | [10] 38.9 µM | [11] 46.5 µM | [12] 29 µM | [13] 16.1 µM | [14] > 100 µM | [15] > 10 µM | [16] 62.7 µM | [17] 44.6 µM | [18] 53.8 µM | [19] 49.5 µM | [20] 54.5 µM
